# Data from article PMC11775380, “Discovery of Novel Nav1.7-Selective Inhibitors with the 1H-Indole-3-Propionamide Scaffold for Effective Pain Relief” (Research, 2025).
# Where two headings read alike, the source gives them in different places.
# Tests used:
# Format in all cases: in vivo, ICR mice
# [1] = Pharmacokinetic study in mice (p.o. and i.v.), LC-MS/MS of plasma; conditions: for MRT last: read-out: MRT(0-t); for MRT inf: read-out: MRT(0-∞)
# Description: To evaluate the pharmaceutical properties of WN2-R, a preliminary pharmacokinetic study was conducted in mice to examine the in vivo pharmacokinetic profile following both oral (p.o.) and intravenous (i.v.) administrations, along with the determination of bioavailability (Table 2). Under p.o. conditions, WN2-R was rapidly absorbed, with drug detection occurring within 5 min. […] Similar to the p.o. study, the plasma concentration decreased gradually over time, approaching the quantitation limit at 6 to 8 h post-dosing (Fig. 7C).
# The pharmacokinetic and bioavailability of WN2-R were examined in ICR mice following both p.o. and i.v. administrations. All animal experiment procedures were carried out in accordance with the animal experiment procedures promulgated by the State Science and Technology Commission of China and Animal Care and Use Committee of Institute of Materia Medica, Chinese Academy of Medical Sciences (registry no. 00008517). Male ICR mice (n = 12), weighing 20 ± 2 g, were obtained from Beijing Vital River Experimental Animal Co., Ltd. (Beijing, China). Before the experiment, the mice were kept under standard conditions, including a 12-h light/dark cycle, adequate ventilation, a temperature of 25 ± 2 °C, and 60% relative humidity. WN2-R, suspended in physiological saline, was orally administrated to mice at 10 mg/kg after an overnight fast. In addition, the mice were injected via caudal vein with WN2-R dissolved in 20% HP-β-CD at 1 mg/kg. Blood samples were collected from the retro-orbital venous plexus to ice-cooled EP tube containing 0.5% heparin sodium at 0.033 (i.v. only), 0.083, 0.25, 0.5, 1, 2, 4, 6, 8, 12, and 24 h after dosing. Plasma was obtained by centrifugation of blood at 8,000 rpm for 5 min. Subsequently, 20 μl of plasma sample was mixed with 140 μl of acetonitrile, vortexed for 30 s, and centrifuged twice at 14,000 rpm for 5 min. The resulting supernatant (2 μl) was analyzed by the liquid chromatography–tandem mass spectrometry (LC-MS/MS) method.
# The LC-MS/MS system consisted of Thermo TSQ Access Max mass and Vanquish liquid chromatograph (Thermo Scientific, USA). Zorbax-SB C18 column (2.1 × 100 mm, 3.5 μm Agilent USA) was used in the analysis. The mobile phase consisted of water containing 0.1% formic acid (Phase A) and acetonitrile (Phase B) at a flow rate of 0.25 ml/min with an operation temperature of 35 °C. A gradient elution system was used as follows: 40% B at 0 to 1 min, 90% B at 1 to 4 min, 90% B down to 40% B at 4 to 5 min, and 40% B at 5 to 7 min. The automatic sampler was maintained at 15 °C throughout the analysis. For the mass spectrometry analysis, positive ion scanning in selected reaction monitor mode was applied to monitor the transition of m/z 458.2 to 191.9 for the determination of WN2-R. Besides, other instrument parameters, including ion spray voltage, capillary temperature, sheath gas, auxiliary gas, and collision energy, were optimized to enhance the analysis of WN2-R.
# EXCEL and PRISM8.0 were used for data and chart preparation. The Winnolin professional software was employed for the pharmacokinetic parameter calculation. Bioavailability was calculated using the following formula: F (%) = (Di.v. × AUCp.o.)/(Dp.o. × AUCi.v.) × 100%.
# [2] = test system: CFA inflammatory pain model of mice; assay: CFA-induced inflammatory (chronic) pain model; conditions: for Paw withdrawal threshold (PWT) at 1.5 h: 1.5 h post drug, 24 h after CFA
# Description: The chronic pain model of mice was often used to simulate persistent pain in humans. In this model, chronic persistent pain was induced by injecting complete Freund’s adjuvant (CFA) into the right hind foot of mice. […] The chronic analgesic potential of WN2-R was evaluated using both i.g. and i.m. methods (n = 4). When administered by i.g., the PWTs of the WN2-R group and the PF-05089771 group reached their peak at 1.5 and 1 h after administration, respectively, and subsequently declined to the same level as the saline group at 2.5 h (Fig. 6D). […] When administered i.m., both the WN2-R and PF-05089771 groups reached peak PWTs at 1.5 h, and declined to the saline group level at 3 h (Fig. 6K). […] The mechanical allodynia of ICR mice (2 male and 2 female) was assessed prior to model construction using von Frey fibers according to the up–down method. Mice with paw withdraw thresholds (PWTs) remarkably deviating from the mean value were excluded from further experiments. Subsequently, 15 μl of CFA was unilaterally injected into the intraplantar surface of the right hind paw of each mice. After 24 h, the PWTs of the mice were assessed. During the i.g. administration of drugs or saline, PWTs were measured 0, 0.5, 1, 1.5, 2, and 2.5 h post drugs/saline administration. Similarly, during i.m. administration, PWTs were measured at 0, 0.5, 1, 1.5, 2, 2.5, and 3 h post drugs/saline administration.
# [3] = test system: formalin-induced acute inflammatory pain model in mice; assay: Formalin-induced inflammation pain model; conditions: 30 min before formalin
# Description: The formalin-induced acute inflammatory pain model in mice, achieved through the plantar injection of formalin aqueous solution, is another widely used model for acute inflammatory pain. This model comprises 2 stages: an initial phase ([…]) where pain is triggered by formalin's direct stimulation of nociceptive receptors on sensory neurons, followed by a second phase (15 to 40 min) characterized by persistent inflammatory pain due to tissue damage. Similarly, both i.g. and i.m. methods were used to evaluate the effect of WN2-R in this model (n = 6) (Fig. 6B and I). […] These findings were consistent across repeated experiments.
# To induce the pain response, 20 μl of formalin (5%, w/v) was injected subcutaneously into the right hind paw of ICR mice (3 male and 3 female). Prior to the formalin injection, mice were preadministered with WN2-R (5 mg/kg i.g., 1 mg/kg i.m.), PF05089771 (5 mg/kg i.g., 1 mg/kg i.m.), or saline 30 min beforehand. The duration of licking/biting the injected paw was recorded every 5 min, commencing immediately after the formalin injection and continuing for 40 min. Phase I and II in this assay corresponded to the nociceptive response observed between 0 and 5 min and between 10 and 40 min, respectively.
# [4] = male, ICR, mouse, plasma, iv, i.v. (1 mg/kg)
# [5] = male, ICR, mouse, plasma, po, p.o. (10 mg/kg)
smiles,measurement,setting,value
Cc1ccc(Cn2cc([C@H](CC(=O)NCCN(C)C)c3ccc(F)cc3)c3ccccc32)cc1 [WN2-R],Time at which Cmax was detected,[1]; i.v. (1 mg/kg),2 min
same,V,[1]; i.v. (1 mg/kg),"23,580.98 ± 2,679.45 ml/kg"
same,Cmax,"[1]; male, ICR, mouse, iv, i.v. (1 mg/kg), plasma",269 ± 11.9 ng/mL
same,AUC(0-inf),[1]; [4],271 ± 30.8 ng·h/mL
same,AUC(0-t),[1]; [4],267 ± 29.7 ng·h/mL
same,Tmax,[1]; [4],0.033 h
same,clearance,[1]; [4],62 mL/min/kg
same,half-life,[1]; [4],4.47 ± 0.96 h
same,MRT last,[1]; [4],3.21 ± 0.28 h
same,MRT inf,[1]; [4],3.56 ± 0.44 h
same,bioavailability,"[1]; male, ICR, mouse, plasma, oral, p.o. 10 mg/kg vs i.v. 1 mg/kg, from AUC(0-t), read-out: F (bioavailability)",20.3%
same,AUC(0-inf),[1]; [5],546 ± 98.1 ng·h/mL
same,AUC(0-t),[1]; [5],542 ± 98.5 ng·h/mL
same,Tmax,[1]; [5],0.25 h
same,half-life,[1]; [5],3.46 ± 0.5 h
same,MRT last,[1]; [5],5.66 ± 0.33 h
same,MRT inf,[1]; [5],5.87 ± 0.4 h
same,Cmax,"[1]; male, ICR, mouse, po, p.o. (10 mg/kg), plasma",139 ± 25.4 ng/mL
same,Time at which PWT declined to the saline group level,[2]; i.g.,2.5 h
same,Time of peak PWT after administration,[2]; i.g.,1.5 h
same,Paw withdrawal threshold (PWT) at 1.5 h,[2]; i.g.,1.25 g
same,Time at which PWT declined to the saline group level,[2]; i.m.,3 h
same,Time of peak PWT after administration,[2]; i.m.,1.5 h
same,Paw withdrawal threshold (PWT) at 1.5 h,[2]; i.m.,1.17 g
same,Licking time in phase I vs saline,"[3]; i.g., 5 mg/kg",significantly reduced licking time
same,Licking time in phase II vs saline,"[3]; i.g., 5 mg/kg",failed to significantly reduce licking time
same,Licking time in phase I vs saline,"[3]; i.m., 1 mg/kg",significantly reduced licking time
same,Licking time in phase II vs saline,"[3]; i.m., 1 mg/kg",significantly reduced licking time
